In one assay the target is Human plasma kallikrein (Homo sapiens (Human), UniProt P03952). The assay is described as follows: Determination of the IC50 for plasma kallikrein (fluorogenic substrate H-DPro-Phe-Arg-AFC). It is filed as biochemical. Particulars: 37° C., read-out: IC50 (human PKal). The procedure: Determination of the IC50 Plasma Kallikrein Plasma kallikrein inhibitory activity in vitro was determined using standard published methods (see e.g. Johansen et al., Int. J. Tiss. […] Shori et al., Biochem. Pharmacol., 1992, 43, 1209; Stürzebecher et al., Biol. Chem. Hoppe-Seyler, 1992, 373, 1025). Human plasma kallikrein (Protogen) was incubated at 37° C. with the fluorogenic substrate […] and various concentrations of the test compound.

Another assay deals with Human KLK1 (Homo sapiens (Human), UniProt P06870). The assay is described as follows: Determination of the IC50 for KLK1 (fluorogenic substrate H-DVal-Leu-Arg-AFC). The assay is classed as biochemical. The conditions noted are these: human KLK1, 37° C. The procedure: Selected compounds were further screened for inhibitory activity against the related enzyme KLK1. The ability of the compounds of formula (I) to inhibit KLK1 may be determined using the following biological assay:
Determination of the IC50 for KLK1
KLK1 inhibitory activity in vitro was determined using standard published methods (see e.g. Johansen et al., Int. J. Tiss. Reac. 1986, 8, 185; Shori et al., Biochem. Pharmacol., 1992, 43, 1209; Stürzebecher et al., Biol. Chem. Hoppe-Seyler, 1992, 373, 1025). Human KLK1 (Callbiochem) was incubated at 37° C. with the fluorogenic substrate H-DVal-Leu-Arg-AFC and various concentrations of the test compound. Residual enzyme activity (initial rate of reaction) was determined by measuring the change in optical absorbance at 410 nm and the IC50 value for the test compound was determined.

Human KLK1, sequence (P06870 25-262): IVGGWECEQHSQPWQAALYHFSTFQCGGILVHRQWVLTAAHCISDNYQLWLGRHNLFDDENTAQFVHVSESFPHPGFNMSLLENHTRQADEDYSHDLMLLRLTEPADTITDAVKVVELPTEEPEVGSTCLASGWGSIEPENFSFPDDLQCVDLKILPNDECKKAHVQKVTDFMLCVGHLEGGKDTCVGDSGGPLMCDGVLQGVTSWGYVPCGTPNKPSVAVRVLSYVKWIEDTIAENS
Human plasma kallikrein, sequence (P03952 391-638 limits assumed): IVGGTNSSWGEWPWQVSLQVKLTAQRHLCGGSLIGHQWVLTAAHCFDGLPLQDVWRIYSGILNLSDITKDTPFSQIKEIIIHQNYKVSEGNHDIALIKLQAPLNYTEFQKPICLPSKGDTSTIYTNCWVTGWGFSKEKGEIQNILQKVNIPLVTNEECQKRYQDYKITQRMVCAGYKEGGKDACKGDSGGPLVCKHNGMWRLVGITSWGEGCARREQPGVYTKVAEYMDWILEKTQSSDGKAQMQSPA
Human plasma kallikrein, sequence (P03952 20-390 partner limits assumed): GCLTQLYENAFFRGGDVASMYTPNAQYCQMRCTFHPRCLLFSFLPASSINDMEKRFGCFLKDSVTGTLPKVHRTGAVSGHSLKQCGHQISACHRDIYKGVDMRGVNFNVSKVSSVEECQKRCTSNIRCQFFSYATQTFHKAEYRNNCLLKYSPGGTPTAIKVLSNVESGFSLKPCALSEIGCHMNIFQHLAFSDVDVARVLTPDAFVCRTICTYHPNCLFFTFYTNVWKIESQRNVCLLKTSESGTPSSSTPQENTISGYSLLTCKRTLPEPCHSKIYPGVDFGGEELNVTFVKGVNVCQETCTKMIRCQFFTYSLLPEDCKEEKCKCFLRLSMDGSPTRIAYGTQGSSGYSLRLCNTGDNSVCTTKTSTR

Take `COc1ncc(Cc2ccc3nc(C)ccc3c2)cc1C(=O)NCc1ccc2c(N)nccc2c1` [Example 19, N-[(1-Aminoisoquinolin-6-yl)methyl]-2-methoxy-5-[(2-methylquinolin-6-yl)methyl]pyridine-3-carboxamide]: the IC50 at Human plasma kallikrein worked out at 0.434 µM; on Human KLK1 it was 1.21 µM.

Turning to `Cc1ccc2cc(Cc3cnc(O)c(C(=O)NCc4ccc5c(N)nccc5c4)c3)ccc2n1` [Example 20, N-[(1-Aminoisoquinolin-6-yl)methyl]-5-[(2-methylquinolin-6-yl)methyl]-2-oxo-1H-pyridine-3-carboxamide], the IC50 amounted to 0.621 µM at Human plasma kallikrein and 2.49 µM at Human KLK1.

As for `CNc1ncc(C(=O)NCc2ccc3c(N)nccc3c2)cc1Cc1ccc2nc(C)ccc2c1` [Example 21, N-[(1-Aminoisoquinolin-6-yl)methyl]-6-(methylamino)-5-[(2-methylquinolin-6-yl)methyl]pyridine-3-carboxamide], the IC50 at Human plasma kallikrein was 0.0533 µM; against Human KLK1, 5.99 µM.

As to `Cc1ccc2cc(Cc3cnc(C)c(C(=O)NCc4ccc5c(N)nccc5c4)c3)ccc2n1` [Example 22, N-[(1-Aminoisoquinolin-6-yl)methyl]-2-methyl-5-[(2-methylquinolin-6-yl)methyl]pyridine-3-carboxamide], the IC50 at Human plasma kallikrein came to 0.104 µM; on Human KLK1, 0.484 µM.

For the compound `Nc1nccc2cc(CNC(=O)c3cncc(Cc4ccccc4)c3)ccc12` [Example 23, N-[(1-Aminoisoquinolin-6-yl)methyl]-5-benzylpyridine-3-carboxamide], the IC50 on Human plasma kallikrein came to 40 µM; against Human KLK1, 32.7 µM.

Regarding `Nc1nccc2cc(CNC(=O)c3cncc(Cc4csc(-c5ccccc5)n4)c3)ccc12` [Example 24, N-[(1-Aminoisoquinolin-6-yl)methyl]-5-[(2-phenyl-1,3-thiazol-4-yl)methyl]pyridine-3-carboxamide], the figures for the half-inhibitory concentration (IC50) on Human plasma kallikrein and against Human KLK1 were 1.71 µM and 4 µM, respectively.

Consider `COc1cccc(Cc2cncc(C(=O)NCc3ccc4c(N)nccc4c3)c2)c1` [Example 25, N-[(1-Aminoisoquinolin-6-yl)methyl]-5-[(3-methoxyphenyl)methyl]pyridine-3-carboxamide], for which the IC50 at Human plasma kallikrein was 2.64 µM; against Human KLK1, 6.17 µM.

As to `COc1ccc(Cc2cncc(C(=O)NCc3ccc4c(N)nccc4c3)c2)cc1` [Example 26, N-[(1-Aminoisoquinolin-6-yl)methyl]-5-[(4-methoxyphenyl)methyl]pyridine-3-carboxamide], the IC50 is 0.941 µM at Human plasma kallikrein and greater than 40 µM against Human KLK1.

On to `Nc1nccc2cc(CNC(=O)c3cncc(Cc4ccc(-n5cccn5)cc4)c3)ccc12` [Example 27, N-[(1-Aminoisoquinolin-6-yl)methyl]-5-{[4-(pyrazol-1-yl)phenyl]methyl}pyridine-3-carboxamide], for which the IC50 at Human plasma kallikrein was found to be 1.01 µM; on Human KLK1, 12.1 µM.

For `Nc1nccc2cc(CNC(=O)c3cncc(Cc4ccc5ccncc5c4)c3)ccc12` [Example 28, N-[(1-Aminoisoquinolin-6-yl)methyl]-5-(isoquinolin-7-ylmethyl)pyridine-3-carboxamide], the IC50 on Human plasma kallikrein was 1.1 µM; at Human KLK1, 5.9 µM.

With `COc1ccccc1Cc1cncc(C(=O)NCc2ccc3c(N)nccc3c2)c1` [Example 29, N-[(1-Aminoisoquinolin-6-yl)methyl]-5-[(2-methoxyphenyl)methyl]pyridine-3-carboxamide], the IC50 was determined as 20.2 µM on Human plasma kallikrein and 7.35 µM at Human KLK1.

In the case of `Nc1nccc2cc(CNC(=O)c3cncc(Cc4cccc(-n5cccn5)c4)c3)ccc12` [Example 30, N-[(1-Aminoisoquinolin-6-yl)methyl]-5-{[3-(pyrazol-1-yl)phenyl]methyl}pyridine-3-carboxamide], the IC50 turned out to be 0.302 µM on Human plasma kallikrein and 2.85 µM against Human KLK1.

With `Nc1nccc2cc(CNC(=O)c3cncc(Cc4ccc5ncccc5c4)c3)ccc12` [Example 31, N-[(1-Aminoisoquinolin-6-yl)methyl]-5-(quinolin-6-ylmethyl)pyridine-3-carboxamide], the IC50 at Human plasma kallikrein was found to be 0.144 µM; at Human KLK1, 4.13 µM.

On to `Nc1nccc2cc(CNC(=O)c3cncc(Cc4cccc(Cn5cccn5)c4)c3)ccc12` [Example 32, N-[(1-Aminoisoquinolin-6-yl)methyl]-5-{[3-(pyrazol-1-ylmethyl)phenyl]methyl}pyridine-3-carboxamide], for which the 50% inhibitory concentration (IC50) is 0.237 µM on Human plasma kallikrein and 9.53 µM against Human KLK1.

For `COc1cc(Cc2cncc(C(=O)NCc3ccc4c(N)nccc4c3)c2)ccc1Cn1cc(C)cn1` [Example 33, N-[(1-Aminoisoquinolin-6-yl)methyl]-5-({3-methoxy-4-[(4-methylpyrazol-1-yl)methyl]phenyl}methyl)pyridine-3-carboxamide], the IC50 on Human plasma kallikrein stood at 0.0171 µM; at Human KLK1, 17.1 µM.

As for `COCCOc1ccc(Cc2cncc(C(=O)NCc3ccc4c(N)nccc4c3)c2)cc1` [Example 34, N-[(1-Aminoisoquinolin-6-yl)methyl]-5-{[4-(2-methoxyethoxy)phenyl]methyl}pyridine-3-carboxamide], the figures for the IC50 at Human plasma kallikrein and against Human KLK1 were 1.02 µM and greater than 40 µM, respectively.

On to `Nc1nccc2cc(CNC(=O)c3cncc(CN4CCN(S(=O)(=O)c5ccccc5)CC4)c3)ccc12` [Example 35, N-[(1-Aminoisoquinolin-6-yl)methyl]-5-{[4-(benzenesulfonyl)piperazin-1-yl]methyl}pyridine-3-carboxamide], for which the IC50 is 3.51 µM at Human plasma kallikrein and 29.8 µM at Human KLK1.

`Nc1nccc2cc(CNC(=O)c3cncc(CN4CCN(C(=O)c5ccccc5)CC4)c3)ccc12` [Example 36, N-[(1-Aminoisoquinolin-6-yl)methyl]-5-[(4-benzoylpiperazin-1-yl)methyl]pyridine-3-carboxamide]: the IC50 was 6.65 µM on Human plasma kallikrein and 23.8 µM against Human KLK1.

For the compound `CN1CCOc2cc(Cc3cncc(C(=O)NCc4ccc5c(N)nccc5c4)c3)ccc21` [Example 38, N-[(1-Aminoisoquinolin-6-yl)methyl]-5-[(4-methyl-2,3-dihydro-1,4-benzoxazin-7-yl)methyl]pyridine-3-carboxamide], the IC50 on Human plasma kallikrein stood at 0.107 µM; at Human KLK1, 8.6 µM.

As to `Cc1cnn(CCOCc2cncc(C(=O)NCc3ccc4c(N)nccc4c3)c2)c1` [Example 40, N-[(1-Aminoisoquinolin-6-yl)methyl]-5-{[2-(4-methylpyrazol-1-yl)ethoxy]methyl}pyridine-3-carboxamide], the IC50 at Human plasma kallikrein came to 0.127 µM; against Human KLK1, 4.87 µM.

In the case of `Nc1nccc2cc(CNC(=O)c3cncc(CN4CCN(Cc5ccccc5)CC4)c3)ccc12` [Example 41, N-[(1-Aminoisoquinolin-6-yl)methyl]-5-[(4-benzylpiperazin-1-yl)methyl]pyridine-3-carboxamide], the IC50 came out at 2.75 µM on Human plasma kallikrein and 37 µM against Human KLK1.

In the case of `COc1ccccc1CN1CCN(Cc2cncc(C(=O)NCc3ccc4c(N)nccc4c3)c2)CC1` [Example 42, N-[(1-Aminoisoquinolin-6-yl)methyl]-5-({4-[(2-methoxyphenyl)methyl]piperazin-1-yl}methyl)pyridine-3-carboxamide], the IC50 is 1.83 µM on Human plasma kallikrein and 24.3 µM against Human KLK1.

As to `Nc1nccc2cc(CNC(=O)c3cncc(CN4CCN(CC5CCCC5)CC4)c3)ccc12` [Example 43, N-[(1-Aminoisoquinolin-6-yl)methyl]-5-{[4-(cyclopentylmethyl)piperazin-1-yl]methyl}pyridine-3-carboxamide], the IC50 turned out to be 11 µM on Human plasma kallikrein and 17.9 µM against Human KLK1.

Turning to `Nc1nccc2cc(CNC(=O)c3cncc(CN4CCN(Cc5ccccc5F)CC4)c3)ccc12` [Example 44, N-[(1-Aminoisoquinolin-6-yl)methyl]-5-({4-[(2-fluorophenyl)methyl]piperazin-1-yl}methyl)pyridine-3-carboxamide], the IC50 on Human plasma kallikrein amounted to 6.79 µM; against Human KLK1 it was 28 µM.

Take `COc1ccc(CN2CCN(Cc3cncc(C(=O)NCc4ccc5c(N)nccc5c4)c3)CC2)cc1` [Example 45, N-[(1-Aminoisoquinolin-6-yl)methyl]-5-({4-[(4-methoxyphenyl)methyl]piperazin-1-yl}methyl)pyridine-3-carboxamide]: the IC50 on Human plasma kallikrein turned out to be 33.6 µM; against Human KLK1, 26.9 µM.

As for `Nc1nccc2cc(CNC(=O)c3cncc(CN4CCN(Cc5cccc(F)c5)CC4)c3)ccc12` [Example 46, N-[(1-Aminoisoquinolin-6-yl)methyl]-5-({4-[(3-fluorophenyl)methl]piperazin-1-yl}methyl)pyridine-3-carboxamide], the IC50 on Human plasma kallikrein is 7.51 µM; against Human KLK1, 29.2 µM.

As for `Cn1cc(CN2CCN(Cc3cncc(C(=O)NCc4ccc5c(N)nccc5c4)c3)CC2)cn1` [Example 47, N-[(1-Aminoisoquinolin-6-yl)methyl]-5-({4-[(1-methylpyrazol-4-yl)methyl]piperazin-1-yl}methyl)pyridine-3-carboxamide], the values for the IC50 at Human plasma kallikrein and at Human KLK1 were 40 µM and greater than 40 µM, respectively.

In the case of `Nc1nccc2cc(CNC(=O)c3cncc(CN4CCN(Cc5ccc(F)cc5)CC4)c3)ccc12` [Example 48, N-[(1-Aminoisoquinolin-6-yl)methyl]-5-({4-[(4-fluorophenyl)methyl]piperazin-1-yl}methyl)pyridine-3-carboxamide], the figures for the IC50 at Human plasma kallikrein and at Human KLK1 were 21.9 µM and greater than 40 µM, respectively.

As a reminder, the IC50 is the concentration at which inhibition is half-maximal.

These data come from patent US10221161B2, “Inhibitors of plasma kallikrein” (Kalvista Pharmaceuticals Limited, priority 2013, dated 2019).
